Test results from patent publication US11324757B2, “Pharmaceutical composition for treatment of increased intraocular pressure” (NOVALIQ GMBH, priority 2010, dated 2022).
Several values for one entry are separate records, joined by “and”; a condition that tells them apart may be missing. Equal entries are not always repeated. Where two headings read alike, the source gives them in different places. Blank lines part the entries; values can stand above or below the molecule they belong to.

Assays:
[1] = descriptive term; cited from earlier work
Refractive index = type: physicochemical; settings: selected SFA's, neat
A. niger (ATCC 16404) = assay: Antimicrobial preservative effectiveness test (USP 32 <51>); type: cell-based, Aspergillus niger; settings: for cfu/mL 0 h / cfu/mL 24 h / cfu/mL 48 h / cfu/mL 6 d: approx. 22.5° C.
Procedure: (§1) An antimicrobial preservative effectiveness test in analogy to that of USP 32 <51> was carried out. Sample vials comprising […] or F6H8, respectively, were inoculated with Escherichia coli, Pseudomonas aeruginosa, Staphylococcus aureus, Candida albicans and Aspergillus niger and incubated at approx. 22.5° C.

[2] = Droplet size (weight and volume) from three droppers; type: physicochemical; settings: 25° C.; for droplet volume, Glass pipette / droplet weight, Glass pipette: 2 mL glass Pasteur pipette; for droplet volume, Glass pipette / droplet volume, Injection needle / droplet volume, Eye dropper: calculated from weight; for droplet weight, Glass pipette / droplet weight, Injection needle / droplet weight, Eye dropper: mean ± SD of 10; for droplet volume, Injection needle / droplet weight, Injection needle: 20 G injection needle; for droplet volume, Eye dropper / droplet weight, Eye dropper: dropper of commercial eye drops (Hylo-Vision)
Procedure: The droplet size of selected SFA's in terms of weight and volume of droplets from three droppers was determined and compared to that of purified water. The devices used for dispensing the droplets were (a) a 2 mL Pasteur pipette (wall thickness 0.53 mm; external tip diameter: 1.50 mm; length: 150 mm) made of glass, (b) a 20 G (0.9 mm×50 mm) injection needle, and (c) a dropper from a commercial eye drops product (Hylo-Vision). The droplet weights were measured at 25° C. using a laboratory balance; the volumes were calculated. Each test was performed 10 times.

S. aureus (ATCC 6538) = assay: Antimicrobial preservative effectiveness test (USP 32 <51>); type: cell-based, Staphylococcus aureus; settings: for cfu/mL 0 h / cfu/mL 24 h / cfu/mL 48 h: approx. 22.5° C.
Procedure: as §1

E. coli (ATCC 8739) = assay: as above; type: cell-based, Escherichia coli; settings: for cfu/mL 0 h / cfu/mL 24 h / cfu/mL 48 h: approx. 22.5° C.
Procedure: as §1

[3] = system: P. aeruginosa (ATCC 9027); assay: as above; type: cell-based, Pseudomonas aeruginosa; settings: for cfu/mL 0 h / cfu/mL 24 h / cfu/mL 48 h: approx. 22.5° C.
Procedure: as §1

rabbit eyes (cornea) [4] = system: rabbit eyes (cornea)
[5] = Contact angle (wetting) on compressed drug tablets
C. albicans (ATCC 10231) = assay: Antimicrobial preservative effectiveness test (USP 32 <51>); type: cell-based, Candida albicans; settings: for cfu/mL 0 h / cfu/mL 24 h / cfu/mL 48 h: approx. 22.5° C.
Procedure: as §1

[6] = typical values for comparison; water at room temperature (RT); cited from earlier work
[7] = Solubility of latanoprost in F4H5/ethanol by HPLC; type: physicochemical; settings: F4H5/ethanol mixture (99:1 by weight), organic solvent or mixture, thermodynamic from solid; in mixture of F4H5 and ethanol (ratio 99:1 by weight)
Procedure: In a separate experiment, the solubility of latanoprost in a mixture of F4H5 and ethanol (ratio 99:1 by weight) was determined by HPLC according to Ph.Eur.2.2.29 after rotation evaporation of the solvent methyl acetate in vacuo, addition of the solvent under examination of the residue and determination of the dissolved amount.

rabbit eyes (cornea) [8] = assay: Ex-vivo eye irritation test (EVEIT), corneal lesions by abrasion
[9] = on fenofibrate tablet (150 mg, 15-20 kN, 13 mm)
[10] = on trospium chloride tablet (150 mg, 15-20 kN, 13 mm)

Molecule: CCNC(=O)CCC/C=C\C[C@@H]1[C@@H](/C=C/[C@@H](O)CCc2ccccc2)[C@H](O)C[C@@H]1O [Bimatoprost, (Z)-7-[(1R,2R,3R,5S)-3,5-Dihydroxy-2-[(1E,3S)-3-hydroxy-5-phenyl-1-pentenyl]cyclopentyl]-N-ethyl-5-heptenamide]
solubility in water [1]: slightly soluble

Molecule: CCCCC(F)(F)C(F)(F)C(F)(F)C(F)(F)F [Example F4H4]
Refractive index (Refractive index): 1,308

Molecule: CCCCCC(F)(F)C(F)(F)C(F)(F)C(F)(F)F [Example F4H5]
cfu/mL 0 h (A. niger (ATCC 16404)): 3 000 cfu/mL
Change in log steps 24 h (A. niger (ATCC 16404)): ≤−1.4 log steps
cfu/mL 24 h (A. niger (ATCC 16404)): <100 cfu/mL
Change in log steps 48 h (A. niger (ATCC 16404)): ≤−1.2 log steps
cfu/mL 48 h (A. niger (ATCC 16404)): <100 cfu/mL
Change in log steps 6 d (A. niger (ATCC 16404)): ≤−1.2 log steps
cfu/mL 6 d (A. niger (ATCC 16404)): <100 cfu/mL
droplet volume, Glass pipette [2]: 4.7 ± 0.3 µL
droplet weight, Glass pipette [2]: 6.0 ± 0.4 mg
droplet volume, Injection needle [2]: 2.0 ± 0.3 µL
droplet weight, Injection needle [2]: 2.6 ± 0.4 mg
droplet volume, Eye dropper [2]: 9.6 ± 0.2 µL
droplet weight, Eye dropper [2]: 12.4 ± 0.2 mg
cfu/mL 0 h (S. aureus (ATCC 6538)): 2 900 cfu/mL
Change in log steps 24 h (S. aureus (ATCC 6538)): ≤−1.4 log steps
cfu/mL 24 h (S. aureus (ATCC 6538)): <100 cfu/mL
Change in log steps 48 h (S. aureus (ATCC 6538)): ≤−1.4 log steps
cfu/mL 48 h (S. aureus (ATCC 6538)): <100 cfu/mL
cfu/mL 0 h (E. coli (ATCC 8739)): 1 600 cfu/mL
Change in log steps 24 h (E. coli (ATCC 8739)): ≤−1.2 log steps
cfu/mL 24 h (E. coli (ATCC 8739)): <100 cfu/mL
Change in log steps 48 h (E. coli (ATCC 8739)): ≤−1.2 log steps
cfu/mL 48 h (E. coli (ATCC 8739)): <100 cfu/mL
Refractive index (Refractive index): 1,3204
cfu/mL 0 h [3]: 1 600 cfu/mL
Change in log steps 24 h [3]: ≤−1.2 log steps
cfu/mL 24 h [3]: <100 cfu/mL
Change in log steps 48 h [3]: ≤−1.2 log steps
cfu/mL 48 h [3]: <100 cfu/mL
morphological and histological evaluation of cornea (rabbit eyes (cornea) [4]): entirely clear at the end of the tests, with healthy and smooth surface morphology
penetration into the cornea (OCT imaging) (rabbit eyes (cornea) [4]): no indication of penetration
tolerability by the eye (rabbit eyes (cornea) [4]): better tolerated than culture medium
contact angle [5, 9]: not measurable
contact angle [5, 10]: not measurable
cfu/mL 0 h (C. albicans (ATCC 10231)): 1 500 cfu/mL
Change in log steps 24 h (C. albicans (ATCC 10231)): ≤−1.2 log steps
cfu/mL 24 h (C. albicans (ATCC 10231)): <100 cfu/mL
Change in log steps 48 h (C. albicans (ATCC 10231)): ≤−1.1 log steps
cfu/mL 48 h (C. albicans (ATCC 10231)): <100 cfu/mL

Molecule: CCCCCCC(F)(F)C(F)(F)C(F)(F)C(F)(F)F [Example F4H6]
Refractive index (Refractive index): 1,334

Molecule: CCCCCCCC(F)(F)C(F)(F)C(F)(F)C(F)(F)F [Example F4H7]
Refractive index (Refractive index): 1,3357

Molecule: CCCCCCCCC(F)(F)C(F)(F)C(F)(F)C(F)(F)F [Example F4H8]
Refractive index (Refractive index): 1,348

Molecule: O [Water, reference compound]
Refractive index [6]: 1.333
droplet volume, Glass pipette [2]: 31.3 ± 1.4 µL
droplet weight, Glass pipette [2]: 31.2 ± 1.4 mg
droplet volume, Injection needle [2]: 11.1 ± 0.9 µL
droplet weight, Injection needle [2]: 11.0 ± 0.9 mg
droplet volume, Eye dropper [2]: 36.1 ± 2.2 µL
droplet weight, Eye dropper [2]: 36.0 ± 2.2 mg
contact angle [5, 9]: 92.5 °

Molecule: CC(C)OC(=O)CCCC=CCC1C(O)CC(O)C1C=CC(O)COc1cccc(C(F)(F)F)c1 (stereo not shown) [travoprost, propan-2-yl 7-[3,5-dihydroxy-2-[3-hydroxy-4-[3-(trifluoromethyl)phenoxy]-but-1-enyl]-cyclopentyl]hept-5-enoate]
solubility in water [1]: practically insoluble

Molecule: CCCCCCCC(=O)CC[C@@H]1[C@@H](C/C=C\CCCC(=O)O)[C@@H](O)C[C@H]1O [unoprostone]
solubility in water [1]: practically insoluble

Molecule: benzalkonium chloride [BAC, reference compound]
Final size of corneal lesions (rabbit eyes (cornea) [4]): >60 mm^2
Initial size of corneal lesions (rabbit eyes (cornea) [4]): 16.05 mm^2
healing of corneal lesions (rabbit eyes (cornea) [4]): rapid growth of the lesions
morphological and histological evaluation of cornea (rabbit eyes (cornea) [4]): complete disintegration of the corneal epithelium

Molecule: hyaluronic acid [HA]
morphological and histological evaluation of cornea (rabbit eyes (cornea) [8]; at end of test): entirely clear at the end of the tests, with healthy and smooth surface morphology
Initial size of corneal lesions (rabbit eyes (cornea) [8]; before the test, separate runs): 13.22 mm^2 and 16.03 mm^2 and 14.87 mm^2
healing of corneal lesions (rabbit eyes (cornea) [8]; ex-vivo rabbit eye, 3 days, fluorescein staining): Substantial healing
Change of lesion size (rabbit eyes (cornea) [8]; final vs initial size, 3 days, separate runs): −97.3% and −98.5% and −100%

Now from value to molecule, other results behind:

Refractive index (Refractive index): 1,295
Molecule: CCC(F)(F)C(F)(F)C(F)(F)C(F)(F)C(F)(F)C(F)(F)F [Example F6H2]

Refractive index (Refractive index): 1,306
Molecule: CCCCC(F)(F)C(F)(F)C(F)(F)C(F)(F)C(F)(F)C(F)(F)F [Example F6H4]

Refractive index (Refractive index): 1,3224
Molecule: CCCCCCC(F)(F)C(F)(F)C(F)(F)C(F)(F)C(F)(F)C(F)(F)F [Example F6H6]

Refractive index (Refractive index): 1,3366
Molecule: CCCCCCCC(F)(F)C(F)(F)C(F)(F)C(F)(F)C(F)(F)C(F)(F)F [Example F6H7]

droplet volume, Glass pipette [2]: 5.0 ± 0.4 µL
droplet weight, Glass pipette [2]: 6.6 ± 0.6 mg
droplet volume, Injection needle [2]: 2.5 ± 0.1 µL
droplet weight, Injection needle [2]: 3.4 ± 0.2 mg
droplet volume, Eye dropper [2]: 10.3 ± 0.3 µL
droplet weight, Eye dropper [2]: 13.7 ± 0.4 mg
Refractive index (Refractive index): 1,3432
Change of lesion size (rabbit eyes (cornea) [4]): −100.0%
Final size of corneal lesions (rabbit eyes (cornea) [4]): 0.00 mm^2
healing of corneal lesions (rabbit eyes (cornea) [4]): all lesions healed fully
contact angle [5, 9]: not measurable
contact angle [5, 10]: not measurable
Molecule: CCCCCCCCC(F)(F)C(F)(F)C(F)(F)C(F)(F)C(F)(F)C(F)(F)F [Example F6H8]
cfu/mL 0 h (A. niger (ATCC 16404)): 1 500 cfu/mL
Change in log steps 24 h (A. niger (ATCC 16404)): ≤−1.2 log steps
cfu/mL 24 h (A. niger (ATCC 16404)): <100 cfu/mL
Change in log steps 48 h (A. niger (ATCC 16404)): ≤−1.2 log steps
cfu/mL 48 h (A. niger (ATCC 16404)): <100 cfu/mL
Change in log steps 6 d (A. niger (ATCC 16404)): ≤−1.2 log steps
cfu/mL 6 d (A. niger (ATCC 16404)): <100 cfu/mL
cfu/mL 0 h (S. aureus (ATCC 6538)): 2 900 cfu/mL
Change in log steps 24 h (S. aureus (ATCC 6538)): ≤−1.4 log steps
cfu/mL 24 h (S. aureus (ATCC 6538)): <100 cfu/mL
Change in log steps 48 h (S. aureus (ATCC 6538)): ≤−1.4 log steps
cfu/mL 48 h (S. aureus (ATCC 6538)): <100 cfu/mL
cfu/mL 0 h (E. coli (ATCC 8739)): 1 600 cfu/mL
Change in log steps 24 h (E. coli (ATCC 8739)): ≤−1.2 log steps
cfu/mL 24 h (E. coli (ATCC 8739)): <100 cfu/mL
Change in log steps 48 h (E. coli (ATCC 8739)): ≤−1.2 log steps
cfu/mL 48 h (E. coli (ATCC 8739)): <100 cfu/mL
cfu/mL 0 h [3]: 1 600 cfu/mL
Change in log steps 24 h [3]: ≤−1.2 log steps
cfu/mL 24 h [3]: <100 cfu/mL
Change in log steps 48 h [3]: ≤−1.2 log steps
cfu/mL 48 h [3]: <100 cfu/mL
morphological and histological evaluation of cornea (rabbit eyes (cornea) [4]): dense stromata with very few clefts and well-arranged keratocytes
cfu/mL 0 h (C. albicans (ATCC 10231)): 1 500 cfu/mL
Change in log steps 24 h (C. albicans (ATCC 10231)): ≤−1.2 log steps
cfu/mL 24 h (C. albicans (ATCC 10231)): <100 cfu/mL
Change in log steps 48 h (C. albicans (ATCC 10231)): ≤−1.1 log steps
cfu/mL 48 h (C. albicans (ATCC 10231)): <100 cfu/mL

Refractive index (Refractive index): 1,3494
Molecule: CCCCCCCCCC(F)(F)C(F)(F)C(F)(F)C(F)(F)C(F)(F)C(F)(F)F [Example F6H9]

solubility [7]: 57 µg/mL
Molecule: CC(C)OC(=O)CCC/C=C\C[C@@H]1[C@@H](CC[C@@H](O)CCc2ccccc2)[C@H](O)C[C@@H]1O [latanoprost, isopropyl-(Z)-7[(1R,2R,3R,5S)3,5-dihydroxy-2-[(3R)-3-hydroxy-5-phenylpentyl]cyclopentyl]-5-heptenoate]
solubility in water [1]: practically insoluble
